Results on 17 molecules are retold here after publication PMC9781101, “A High-Throughput Fluorescence Polarization-Based Assay for the SH2 Domain of STAT4” (Methods and Protocols, 2022).

Like-named read-outs stand apart in the source and are kept apart here. Non-standard residues stand in square brackets, D forms with d. Residues, ends and D or L forms follow the SMILES beside them. No end group written: not given here. *: point of attachment. 5FAM = O=C1OC2(c3ccc(O)cc3Oc3cc(O)ccc32)c2ccc(C(=O)*)cc21; pY = N[C@@H](Cc1ccc(OP(=O)(O)O)cc1)C(=O)O

The target in assay [1] is T1, STAT4 SH2 domain (human STAT4 amino acids 136 to 705) (Homo sapiens, UniProt Q14765).
T1 sequence (Q14765 136-705): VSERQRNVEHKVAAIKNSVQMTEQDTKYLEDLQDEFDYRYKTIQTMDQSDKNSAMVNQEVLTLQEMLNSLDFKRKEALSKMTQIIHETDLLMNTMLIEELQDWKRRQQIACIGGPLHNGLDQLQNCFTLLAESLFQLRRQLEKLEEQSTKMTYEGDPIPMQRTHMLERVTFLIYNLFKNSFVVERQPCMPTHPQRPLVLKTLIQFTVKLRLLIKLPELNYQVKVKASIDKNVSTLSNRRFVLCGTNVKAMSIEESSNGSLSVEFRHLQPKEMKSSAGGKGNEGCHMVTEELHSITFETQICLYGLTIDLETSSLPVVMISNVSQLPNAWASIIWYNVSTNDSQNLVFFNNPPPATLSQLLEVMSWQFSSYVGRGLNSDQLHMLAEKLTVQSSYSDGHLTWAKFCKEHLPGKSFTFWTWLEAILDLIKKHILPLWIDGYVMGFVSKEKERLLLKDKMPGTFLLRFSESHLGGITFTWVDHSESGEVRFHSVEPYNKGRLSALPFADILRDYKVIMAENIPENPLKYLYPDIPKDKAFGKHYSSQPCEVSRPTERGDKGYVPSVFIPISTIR
The assay is described as follows: Fluorescence polarization direct binding assay, labelled phosphopeptides to truncated STAT4. The following applies: for fold lower affinity for STAT4 than 5-CF-GpYLPQNID: ratio of Kd values.
Procedure: (§1) Binding of fluorescent-labelled peptides to the truncated STAT4 protein was analysed using an Infinite F500 plate reader (Tecan) as previously published for STAT5b [12]. Unless otherwise stated, FP assays were performed in a buffer consisting of 10 mM Tris/HCl, 50 mM NaCl, 1 mM EDTA, 0.1% (v/v) NP-40 substitute, 2% (v/v) DMSO and 1 mM DTT at a pH of 8.0. All steps were carried out at room temperature. For the binding assays shown in Figure 1, Figure 2 and Figure 3, the prediluted STAT4 protein was incubated for 1 h before addition of the fluorophore-labelled peptide, to mimic the incubation period with test compounds. For the inhibition assay shown in Figure 4, STAT4 was incubated with unlabelled peptide for 1 h before addition of the fluorophore-labelled peptide (final STAT4 concentration: 33 nM). Fluorescence polarization was read 1 h after addition of the labelled peptide, in non-treated black 384-well microplates (Corning). Fluorescent-labelled peptides were used at a final concentration of 10 nM unless otherwise stated. Binding and inhibition curves were plotted using OriginPro 2019 software (OriginLab). Fluorescence polarization values were normalized by subtracting the FP values of the wells containing the fluorophore-labelled peptides only. […] IC50 values from three independent experiments were used to calculate an average value and the corresponding standard deviation. IC50 values were converted to inhibition constants (Ki) using the published equation [20], with average values calculated as for IC50 values.

For assay [2], the system named is STAT4. The settings on record: cited from earlier work; for IC50: read-out: IC50 against STAT4 in an ELISA. (ELISA stands for enzyme-linked immunosorbent assay.)
Assay [3] deals with T1, STAT4 SH2 domain (human STAT4 amino acids 136 to 705). Nature of the assay: Fluorescence polarization competitive inhibition of binding between 5-CF-GpYLPQNID and STAT4. The following applies: for inhibition: 33 nM STAT4, 10 nM probe; for IC50: SD. (In fluorescence polarisation assays a small probe gives low polarisation when free and higher when bound to something large.)
Procedure: as §1
Assay [4] has as its target STAT3 (amino acids 127 to 722) (Mus musculus, UniProt P42227). Nature of the assay: Fluorescence polarization direct binding assay, STAT3. Further details: species or system murine.
Assay [5] addresses T2, STAT6 (amino acids 110 to 651) (Homo sapiens, UniProt P42226).
T2 sequence (P42226 110-651): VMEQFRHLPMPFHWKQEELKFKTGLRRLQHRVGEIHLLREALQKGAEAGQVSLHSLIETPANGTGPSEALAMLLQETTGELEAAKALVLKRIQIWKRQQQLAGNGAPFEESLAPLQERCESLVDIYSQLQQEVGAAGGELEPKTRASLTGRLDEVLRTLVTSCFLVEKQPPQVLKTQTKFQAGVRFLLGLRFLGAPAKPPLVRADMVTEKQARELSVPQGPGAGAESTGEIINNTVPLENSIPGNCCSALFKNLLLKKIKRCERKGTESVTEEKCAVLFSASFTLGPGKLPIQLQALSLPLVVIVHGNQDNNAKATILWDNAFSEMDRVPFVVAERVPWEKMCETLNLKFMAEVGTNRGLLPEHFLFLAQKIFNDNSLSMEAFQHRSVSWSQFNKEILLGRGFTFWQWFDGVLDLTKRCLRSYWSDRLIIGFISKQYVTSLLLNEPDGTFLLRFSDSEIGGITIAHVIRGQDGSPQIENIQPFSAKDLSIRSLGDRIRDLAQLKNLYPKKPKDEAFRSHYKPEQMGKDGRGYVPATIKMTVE
Nature of the assay: Fluorescence polarization direct binding assay, STAT6. The following applies: FP, 10 nM labelled peptide; Figure S1.

In assay [6] the test system is STAT4 R598A. The settings on record: FP, Figure 1b, compared with STAT4 wild-type.
Procedure: Binding of fluorescent-labelled peptides to the truncated STAT4 protein was analysed using an Infinite F500 plate reader (Tecan) as previously published for STAT5b [12]. Unless otherwise stated, FP assays were performed in a buffer consisting of 10 mM Tris/HCl, 50 mM NaCl, 1 mM EDTA, 0.1% (v/v) NP-40 substitute, 2% (v/v) DMSO and 1 mM DTT at a pH of 8.0. All steps were carried out at room temperature. For the binding assays shown in Figure 1, Figure 2 and Figure 3, the prediluted STAT4 protein was incubated for 1 h before addition of the fluorophore-labelled peptide, to mimic the incubation period with test compounds. For the inhibition assay shown in Figure 4, STAT4 was incubated with unlabelled peptide for 1 h before addition of the fluorophore-labelled peptide (final STAT4 concentration: 33 nM). Fluorescence polarization was read 1 h after addition of the labelled peptide, in non-treated black 384-well microplates (Corning). Fluorescent-labelled peptides were used at a final concentration of 10 nM unless otherwise stated. […] Fluorescence polarization values were normalized by subtracting the FP values of the wells containing the fluorophore-labelled peptides only. […] IC50 values were converted to inhibition constants (Ki) using the published equation [20], with average values calculated as for IC50 values.
Assay [7] deals with EPO receptor peptide (Homo sapiens, UniProt P19235, phosphotyrosine, 5-carboxyfluorescein). Nature of the assay: fluorescence polarization.
Assay [8] concerns the target gp130 peptide (Homo sapiens, UniProt P40189, phosphotyrosine, 5-carboxyfluorescein). Nature of the assay: fluorescence polarization.
Assay [9] addresses T3, IFN-γ receptor peptide (Homo sapiens, UniProt P15260, also: 5-carboxyfluorescein, site not given here).
T3 chain: G[pY]DKPHVL
Nature of the assay: fluorescence polarization.

Sequence of STAT3 (amino acids 127 to 722) (P42227 127-722): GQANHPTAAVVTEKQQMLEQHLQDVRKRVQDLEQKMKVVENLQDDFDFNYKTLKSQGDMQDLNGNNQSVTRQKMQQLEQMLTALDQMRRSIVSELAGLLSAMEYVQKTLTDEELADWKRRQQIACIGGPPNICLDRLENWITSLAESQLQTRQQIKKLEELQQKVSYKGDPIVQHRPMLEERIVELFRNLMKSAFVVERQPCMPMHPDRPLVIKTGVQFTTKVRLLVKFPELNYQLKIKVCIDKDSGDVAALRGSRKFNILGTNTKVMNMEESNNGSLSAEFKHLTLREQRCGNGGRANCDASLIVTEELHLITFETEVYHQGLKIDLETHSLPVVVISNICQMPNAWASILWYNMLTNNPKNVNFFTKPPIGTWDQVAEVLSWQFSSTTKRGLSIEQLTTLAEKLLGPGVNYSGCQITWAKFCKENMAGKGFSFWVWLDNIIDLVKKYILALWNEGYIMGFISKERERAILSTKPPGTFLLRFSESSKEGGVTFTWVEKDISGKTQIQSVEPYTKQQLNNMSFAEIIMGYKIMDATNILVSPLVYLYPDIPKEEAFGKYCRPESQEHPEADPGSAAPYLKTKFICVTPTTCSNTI

As a reminder, the Kd is the concentration at which binding is half-saturated. Take `CC(C)C[C@H](NC(=O)[C@H](Cc1ccc(OP(=O)(O)O)cc1)NC(=O)CNC(=O)c1ccc2c(c1)C(=O)OC21c2ccc(O)cc2Oc2cc(O)ccc21)C(=O)N1CCC[C@H]1C(=O)N[C@@H](CCC(N)=O)C(=O)N[C@H](C(=O)N[C@H](C(N)=O)C(C)C)[C@@H](C)O` [5-CF-GpYLPQTV-NH2] (5FAM-G[pY]LPQTV-NH2): in assay [1] (SD), binding was put at a Kd of 82 ± 2 nM. In assay [1] (10 nM labelled peptide), the “fold lower affinity for STAT4 than 5-CF-GpYLPQNID” value (“fold lower affinity” for short) stood at 2.4 fold. Usually IC50 stands for the concentration needed to halve the response being measured. For SHEGpYLPWNID, in assay [2], the “fold less potent against STAT4 than SHEGpYLPQNID in an ELISA” value was 2-3 fold and the IC50 is 930 nM.

As to `CC[C@H](C)[C@H](NC(=O)[C@H](CC(N)=O)NC(=O)[C@H](CO)NC(=O)[C@@H]1CCCN1C(=O)[C@H](CC(C)C)NC(=O)[C@H](Cc1ccc(OP(=O)(O)O)cc1)NC(=O)CNC(=O)c1ccc2c(c1)C(=O)OC21c2ccc(O)cc2Oc2cc(O)ccc21)C(=O)N[C@@H](CC(=O)O)C(=O)O` [5-CF-GpYLPSNID] (5FAM-G[pY]LPSNID-OH), binding in assay [1] (SD) was put at a Kd of 160 ± 6 nM. The term inhibition denotes the change of the read-out against control, counted positive when it falls. For the molecule GpYEEIP, the inhibition in assay [3] (read-out: Inhibition at 40 µM, 40 µM unlabelled peptide (highest concentration tested)) worked out at 37 ± 4%.

In the case of SHEGpYLPQNID, the IC50 in assay [2] is 390 nM.

Molecule `CC[C@H](C)[C@H](NC(=O)[C@H](CC(N)=O)NC(=O)[C@H](CCC(N)=O)NC(=O)[C@@H]1CCCN1C(=O)[C@H](CC(C)C)NC(=O)[C@H](Cc1ccc(OP(=O)(O)O)cc1)NC(=O)CNC(C)=O)C(=O)N[C@@H](CC(=O)O)C(=O)O` [Ac-GpYLPQNID] (Ac-G[pY]LPQNID-OH) had an IC50 in assay [3] of 490 ± 40 nM. The “extrapolated maximum inhibition at infinite peptide concentrations” value in assay [3] (extrapolated from inhibition curve) is given as 98.4 ± 0.9%. The inhibition at 40 µM in [3] (read-out: Inhibition at 40 µM) came out at 96%. `CC(C)C[C@H](NC(=O)[C@H](Cc1c[nH]c2ccccc12)NC(=O)[C@H](CCCCN)NC(=O)[C@H](CC(=O)O)NC(=O)[C@H](CC(C)C)NC(=O)[C@@H](NC(=O)[C@H](CC(C)C)NC(=O)[C@H](Cc1ccc(OP(=O)(O)O)cc1)NC(=O)[C@@H](NC(=O)[C@@H](N)CC(=O)O)[C@@H](C)O)C(C)C)C(=O)O` [DTpYLVLDKWL] (H-DT[pY]LVLDKWL-OH) registered an IC50 in [3] of 4170 ± 130 nM. `CC(C)C[C@H](NC(=O)[C@H](Cc1ccc(OP(=O)(O)O)cc1)NC(=O)CNC(=O)c1ccc2c(c1)C(=O)OC21c2ccc(O)cc2Oc2cc(O)ccc21)C(=O)N[C@H](C(=O)N[C@@H](CC(C)C)C(=O)N[C@@H](CC(=O)O)C(=O)N[C@@H](CCCCN)C(=O)N[C@@H](Cc1c[nH]c2ccccc12)C(=O)O)C(C)C` [5-CF-GpYLVLDKW] registered a dissociation constant Kd in assay [1] (SD) of 267 ± 6 nM. Also, the “fold lower affinity” value in assay [1] (10 nM labelled peptide) is on record as “approximately 8 fold”. On to `CC(=O)N[C@@H](Cc1ccc(OP(=O)(O)O)cc1)C(=O)N[C@@H](CC(C)C)C(=O)N1CCC[C@H]1C(=O)N[C@@H](CCC(N)=O)C(=O)N[C@H](C(=O)N[C@H](C(N)=O)C(C)C)[C@@H](C)O` [Ac-pYLPQTV-NH2], for which the concentration for half-maximal inhibition (IC50) in assay [3] worked out at 1270 ± 100 nM. Also, the “fold less active than Ac-GpYLPQNID” value in assay [3] (ratio of IC50 values) is reported as 2.6 fold. `CC(C)C[C@H](NC(=O)[C@@H](NC(=O)[C@H](Cc1c[nH]cn1)NC(=O)[C@@H]1CCCN1C(=O)[C@H](CCCCN)NC(=O)[C@H](CC(=O)O)NC(=O)[C@H](Cc1ccc(OP(=O)(O)O)cc1)NC(=O)CN)C(C)C)C(=O)O` [GpYDKPHVL] (H-G[pY]DKPHVL-OH) returned a 50% inhibitory concentration (IC50) in assay [3] of 31400 ± 6700 nM. On to MAGPMQSpTPLNGAKK, for which, in assay [3] (read-out: Inhibition at 40 µM, 40 µM unlabelled peptide, n = 2), the inhibition was 2 ± 2%. Besides, the “inhibitory effect on STAT4 (in words)” value in assay [3] (up to 40 µM) is recorded as “no detectable inhibitory effect”. The molecule `CC[C@H](C)[C@H](NC(=O)[C@H](CC(C)C)NC(=O)[C@H](CC(=O)O)NC(=O)[C@H](CCC(N)=O)NC(=O)[C@H](Cc1c[nH]c2ccccc12)NC(=O)[C@@H]1CCCN1C(=O)[C@@H](NC(=O)[C@H](Cc1ccc(OP(=O)(O)O)cc1)NC(=O)CNC(=O)c1ccc2c(c1)C(=O)OC21c2ccc(O)cc2Oc2cc(O)ccc21)C(C)C)C(=O)O` [5-CF-GpYVPWQDLI] (5FAM-G[pY]VPWQDLI-OH) gave a Kd in [1] (SD) of 93 ± 8 nM. In assay [1] (10 nM labelled peptide), the “fold lower affinity” value was 3 fold.

Consider `CC(C)C[C@H](NC(=O)[C@@H](NC(=O)[C@H](Cc1c[nH]cn1)NC(=O)[C@@H]1CCCN1C(=O)[C@H](CCCCN)NC(=O)[C@H](CC(=O)O)NC(=O)[C@H](Cc1ccc(OP(=O)(O)O)cc1)NC(=O)CNC(=O)c1ccc2c(c1)C(=O)OC21c2ccc(O)cc2Oc2cc(O)ccc21)C(C)C)C(=O)O` [5-CF-GpYDKPHVL] (5FAM-G[pY]DKPHVL-OH), for which binding in assay [1] (SD) was put at a Kd of 1230 ± 284 nM.

Molecule `CC[C@H](C)[C@H](NC(=O)[C@H](CCC(=O)O)NC(=O)[C@H](CCC(=O)O)NC(=O)[C@H](Cc1ccc(OP(=O)(O)O)cc1)NC(=O)CNC(=O)c1ccc2c(c1)C(=O)OC21c2ccc(O)cc2Oc2cc(O)ccc21)C(=O)N1CCC[C@H]1C(=O)O` [5-CF-GpYEEIP] (5FAM-G[pY]EEIP-OH) registered a Kd in assay [1] greater than 2560 nM.

In the case of `CC[C@H](C)[C@H](NC(=O)[C@H](CC(N)=O)NC(=O)[C@H](CCC(N)=O)NC(=O)[C@@H]1CCCN1C(=O)[C@H](CC(C)C)NC(=O)[C@H](Cc1ccc(OP(=O)(O)O)cc1)NC(=O)CNC(=O)c1ccc2c(c1)C(=O)OC21c2ccc(O)cc2Oc2cc(O)ccc21)C(=O)N[C@@H](CC(=O)O)C(=O)O` [5-CF-GpYLPQNID] (5FAM-G[pY]LPQNID-OH), the Kd in assay [4] (FP, 10 nM labelled peptide, Figure S1, mean ± SD of 3 independent experiments, SD) is 131 ± 6 nM; in assay [5] it was greater than 2560 nM; in assay [1] (SD) it was 34 ± 4 nM. Moreover, the “weaker affinity for STAT3 than for STAT4” value in assay [4] (ratio of Kd values STAT3 vs STAT4) is reported as “fourfold”. Also, the “binding to STAT4 R598A (in words)” value in assay [6] is “almost completely abolished”. In addition, the “reduction in affinity for STAT4 by 8 h” value in [1] (8 h after addition of labelled probe) is “no more than 35%”. On to 5-CF-GPMQSpTPLNG, for which the “binding to STAT4 (in words)” value in [1] (FP, 10 nM labelled peptide) was “did not bind”.

B1: STAT4 SH2 (protein)
chain: LPLWIDGYVMGFVSKEKERLLLKDKMPGTFLLRFSESHLGGITFTWVDHSESGEVRFHSVEPYNKGRLSALPFADILRDYKVIMAENIPENPLKYLYPDIPK
Regarding B1, the dissociation constant Kd in assay [7] is 267 nM; in assay [8], 82 nM; in assay [9] it was 1230 nM.
